The text below walks through data of patent publication US9850183B2, “Conjugates derived from non-steroidal anti-inflammatory drugs and methods of use thereof in imaging” (Reiley Pharmaceuticals, Inc., priority 2014, dated 2017).

Where two headings read alike, the source gives them in different places.

One may read the IC50 as the concentration needed to halve the response being measured.

One assay concerns the target T1, human COX-2 (Homo sapiens, UniProt P35354).
T1 construct: purchased Cayman Chemical Co., Ann Arbor, Mich., USA 701080
T1 sequence (P35354 18-604): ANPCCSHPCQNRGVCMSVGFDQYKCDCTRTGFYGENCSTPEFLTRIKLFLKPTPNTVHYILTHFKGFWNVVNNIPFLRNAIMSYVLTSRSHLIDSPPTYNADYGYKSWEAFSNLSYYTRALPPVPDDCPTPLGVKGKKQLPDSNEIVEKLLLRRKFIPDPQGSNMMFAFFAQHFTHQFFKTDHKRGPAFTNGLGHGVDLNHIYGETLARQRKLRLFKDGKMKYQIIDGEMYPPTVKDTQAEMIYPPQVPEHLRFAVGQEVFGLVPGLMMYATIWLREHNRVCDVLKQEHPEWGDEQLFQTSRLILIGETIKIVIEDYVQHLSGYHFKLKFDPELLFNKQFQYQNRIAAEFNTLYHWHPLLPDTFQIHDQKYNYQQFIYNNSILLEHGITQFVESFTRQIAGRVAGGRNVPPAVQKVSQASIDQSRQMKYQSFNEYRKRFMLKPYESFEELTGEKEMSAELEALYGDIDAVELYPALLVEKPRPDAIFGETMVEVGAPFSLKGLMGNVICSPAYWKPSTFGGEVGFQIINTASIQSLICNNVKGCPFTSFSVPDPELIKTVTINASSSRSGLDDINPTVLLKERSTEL
Description: COX-2 enzyme assay (EIA kit, PGF2α readout). The assay is classed as biochemical. As to the method:
The ability of compounds to inhibit ovine COX-1 and human COX-2 was determined using a commercially available enzyme immunoassay (EIA) kit (catalog no. 701090 (COX-1); 701080 (COX-2) Cayman Chemical Co., Ann Arbor, Mich., USA) according to the manufacturer's protocol. COX catalyzes the first step in the biosynthesis of AA to PGH2. PGF2α, produced from PGH2 by reduction with stannous chloride, was measured by EIA (ACE™ competitive EIA, Cayman Chemical, Ann Arbor, Mich., USA). Briefly, to a series of supplied reaction buffer solutions [960 μl 0.1 M Tris-HCl (pH 8.0) containing 5 mM EDTA and 2 mM phenol] with either COX-1 or COX-2 (10 μl) enzyme in the presence of heme (10 μl), 10 μl of various concentrations of test drug solutions were added. These solutions were incubated for 15 min at 37° C. and subsequently 10 μl AA solution (100 μM) was added. The COX reaction was stopped by the addition of 30 μl stannus chloride after 2 min, mixed immediately, supernatants were 2000 fold diluted. The produced PGF2α was measured by EIA. This assay is based on the competition between PGs and a PG-acetylcholinesterase conjugate (PG tracer) for a limited amount of PG antiserum. The amount of PG tracer that is able to bind to the PG antiserum is inversely proportional to the concentration of PGs in the wells since the concentration of the PG tracer is held at a constant while the concentration of PGs varies. The specific antiserum-PG complex bound to a mouse anti-rabbit IgG that had been previously attached to the well. The plate was washed to remove any unbound reagents and 200 μl Ellman's reagent (5,5′-dithiobis-(2-nitrobenzoic acid), which contains the substrate to acetylcholine esterase, was added to the well. The product of this enzymatic reaction generates a distinct yellow color that absorbs at 406 nm. The intensity of this color, determined by spectrophotometry, is proportional to the amount of PG tracer bound to the well, which is inversely proportional to the amount of PGs present in the well during the incubation. Percent inhibition was calculated by the comparison of the compounds treated to the various control incubations.
(§1) Dose-response curves were generated using XLFit (IDBS, Surrey, UK) or Prism (GraphPad Software, La Jolla, Calif., US) to calculate IC50 values for each compound tested.

A further assay deals with T2, COX-2 (Mus musculus, UniProt Q05769).
T2 construct: endogenous in cells; host or cells: RAW264.7 murine macrophages, stimulated with LPS and IFN-g
T2 sequence (Q05769 18-604): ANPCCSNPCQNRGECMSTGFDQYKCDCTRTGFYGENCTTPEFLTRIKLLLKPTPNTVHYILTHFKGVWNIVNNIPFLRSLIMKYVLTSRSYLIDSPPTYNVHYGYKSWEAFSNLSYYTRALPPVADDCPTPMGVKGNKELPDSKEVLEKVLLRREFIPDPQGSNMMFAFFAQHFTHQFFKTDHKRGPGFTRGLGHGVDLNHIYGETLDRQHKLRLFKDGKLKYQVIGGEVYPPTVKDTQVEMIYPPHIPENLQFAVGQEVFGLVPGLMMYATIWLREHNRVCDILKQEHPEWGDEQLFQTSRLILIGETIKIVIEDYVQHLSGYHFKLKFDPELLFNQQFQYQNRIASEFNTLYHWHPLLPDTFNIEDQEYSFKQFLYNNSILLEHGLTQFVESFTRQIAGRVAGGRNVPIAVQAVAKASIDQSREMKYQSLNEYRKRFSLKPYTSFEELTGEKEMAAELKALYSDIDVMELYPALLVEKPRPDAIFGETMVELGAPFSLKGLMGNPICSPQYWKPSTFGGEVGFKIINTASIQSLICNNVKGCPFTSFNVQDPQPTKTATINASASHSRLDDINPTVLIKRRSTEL
Description: Cell-based COX-2 assay (PGE2 in LPS/IFN-g stimulated RAW264.7 cells). The conditions noted are these: RAW264.7 murine macrophages, 1 μg/ml LPS and 10 U/ml IFN-g for 7 h, PGE2 readout. The protocol:
RAW264.7 murine macrophages were obtained from the Cell Bank of Shanghai Institute of Biochemistry and Cell Biology, Chinese Academy of Sciences (Shanghai, China) and cultured in Dulbecco's modified Eagle's medium containing 100 U/ml penicillin and 100 μg/ml streptomycin at 37° C. in 5% CO2.
RAW264.7 cells were plated at a density of 2.5×10^5/ml cells in a 96-well plate with 0.1 ml of culture medium per well and cultured overnight. The cells were pre-incubated for 30 min with various doses of compounds and stimulated for 7 h with 1 μg/ml LPS and 10 U/ml IFN-g. The cell culture supernatants were collected immediately following treatment and centrifuged at 1,000 rpm for 5 min to remove the particulate matter. PGE2 was determined using a Prostaglandin E2 assay kit (catalog no. 62P2APEB; Cisbio Co.,). 10 μL of cell supernatant was transferred to a 384-well low volume plate (e.g. Corning® 3544), 5 μL of PGE2-d2 was added, followed by 5 μL anti-PGE2 Cryptate as a negative control. Replace the standard by 10 μL of diluent and PGE2-d2 by 5 μL of reconstitution buffer, Cal0 (for positive control), replace the standard by 10 μL of diluent. Incubate at 4° C. overnight. After centrifuging at 1,000 rpm for 1 min, the dual fluorescence emissions of 615 and 665 nm with a 320 nm excitation were measured using an Envision plate reader (Perkin Elmer, Shelton, Conn.). The results are expressed as the ratio of 665 nm/615 nm emissions.
as §1

The mark [1] stands for this setting: human COX-2 enzyme, EIA, 15 min pre-incubation at 37° C., read-out: COX-2 IC50 (μM) enzyme.

On to `COc1ccc2c(c1)c(CC(=O)NCCCCNC(=O)C[N]1C(=O)C[N]3C(=O)C[N]4C(=O)C[S][Re]143=[O])c(C)n2C(=O)c1ccc(Cl)cc1` [Compound 23], for which the IC50 at human COX-2 (setting [1]) is 12 µM. In the case of `COc1ccc2c(c1)c(CC(=O)NCCCCCCNC(=O)C[N]1C(=O)C[N]3C(=O)C[N]4C(=O)C[S][Re]143=[O])c(C)n2C(=O)c1ccc(Cl)cc1` [Compound 27], the IC50 came out at 0.6 µM at human COX-2 (setting [1]) and 12.7 µM on COX-2.

Regarding `Cc1c(CC(=O)O)c2cc(OCCCCNC(=O)C[N]3C(=O)C[N]4C(=O)C[N]5C(=O)C[S][Re]354=[O])ccc2n1C(=O)c1ccc(Cl)cc1` [Compound 35], the IC50 at human COX-2 is 1.6 µM. In turn, `Cc1c(CC(=O)O)c2cc(OCCCCCCNC(=O)C[N]3C(=O)C[N]4C(=O)C[N]5C(=O)C[S][Re]354=[O])ccc2n1C(=O)c1ccc(Cl)cc1` [Compound 39] had an IC50 against human COX-2 of 1.1 µM. On to `CCOC(=O)C1C[S][Re]23(=[O])[S]CC(C(=O)NCCOCCOCCNC(=O)Cc4c(C)n(C(=O)c5ccc(Cl)cc5)c5ccc(OC)cc45)[N]2CC[N]13` (stereo not drawn) [Compound 178], for which the IC50 at human COX-2 (setting [1]) turned out to be 0.2 µM; on COX-2, 1.8 µM. In the case of `CCOC(=O)C1C[S][Re]23(=[O])[S]CC(C(=O)NCCCCCCNC(=O)Cc4c(C)n(C(=O)c5ccc(Cl)cc5)c5ccc(OC)cc45)[N]2CC[N]13` (stereo not drawn) [Compound 181], the IC50 at human COX-2 (setting [1]) turned out to be 1 µM; against COX-2 it was 1.5 µM.

Consider `CCOC(=O)C1C[S][Re]23(=[O])[S]CC(C(=O)NCCCCCCCNC(=O)Cc4c(C)n(C(=O)c5ccc(Cl)cc5)c5ccc(OC)cc45)[N]2CC[N]13` (stereo not drawn) [Compound 182], for which the IC50 on human COX-2 (setting [1]) is 0.8 µM; against COX-2, 0.6 µM. As to `CCOC(=O)C1C[S][Re]23(=[O])[S]CC(C(=O)NCCCCCCCCNC(=O)Cc4c(C)n(C(=O)c5ccc(Cl)cc5)c5ccc(OC)cc45)[N]2CC[N]13` (stereo not drawn) [Compound 183], the IC50 was 0.4 µM on human COX-2 (setting [1]) and 0.7 µM at COX-2. Taken in the same sequence, the figures for `COc1ccc2c(c1)c(CC(=O)NCCCCCCNC(=O)C1C[S][Re]34(=[O])[S]CC(C(=O)OC(C)C)[N]3CC[N]14)c(C)n2C(=O)c1ccc(Cl)cc1` (stereo not drawn) [Compound 185] were 1.2 µM and 0.5 µM. Turning to `COc1ccc2c(c1)c(CC(=O)NCCNC(=O)[c-]1cccc1)c(C)n2C(=O)c1ccc(Cl)cc1.[C-]#[O+].[C-]#[O+].[C-]#[O+].[Re+]` [Compound 243], the results for the IC50 at human COX-2 (setting [1]) and against COX-2 were 0.5 µM and 0.7 µM, respectively. In the same order, the values of `COc1ccc2c(c1)c(CC(=O)NCCOCCNC(=O)[c-]1cccc1)c(C)n2C(=O)c1ccc(Cl)cc1.[C-]#[O+].[C-]#[O+].[C-]#[O+].[Re+]` [Compound 244] are greater than 30 µM and 1.5 µM.

Consider `COc1ccc2c(c1)c(CC(=O)NCCCCCCCCNC(=O)[c-]1cccc1)c(C)n2C(=O)c1ccc(Cl)cc1.[C-]#[O+].[C-]#[O+].[C-]#[O+].[Re+]` [Compound 247], for which the IC50 came to 0.2 µM at human COX-2 (setting [1]) and 2.6 µM against COX-2. `COc1ccc2c(c1)c(CC(=O)NCCOCCOCCOCCNC(=O)[c-]1cccc1)c(C)n2C(=O)c1ccc(Cl)cc1.[C-]#[O+].[C-]#[O+].[C-]#[O+].[Re+]` [Compound 248]: the IC50 on human COX-2 (setting [1]) was 0.2 µM; on COX-2, greater than 30 µM. For the compound `COc1ccc2c(c1)c(CC(=O)NCc1ccc(CNC(=O)[c-]3cccc3)cc1)c(C)n2C(=O)c1ccc(Cl)cc1.[C-]#[O+].[C-]#[O+].[C-]#[O+].[Re+]` [Compound 249], the IC50 on human COX-2 (setting [1]) turned out to be 1.1 µM; on COX-2 it was 4.4 µM. Taken in the same sequence, the figures for `COc1ccc2c(c1)c(CC(=O)NCCOCCOCCNC(=O)c1ccc[cH-]1)c(C)n2C(=O)c1ccc(Cl)cc1.[C-]#[O+].[C-]#[O+].[C-]#[O+].[Re+]` [Compound 251] were 0.3 µM and greater than 30 µM. In the case of `COc1ccc2c(c1)c(CC(=O)NCCCC[N+]13CC[S][Re-]14(=[O])[S]CC[N]4C(=O)C3)c(C)n2C(=O)c1ccc(Cl)cc1` (stereo not drawn) [Compound 261], the results for the IC50 on human COX-2 (setting [1]) and against COX-2 were 0.8 µM and 1.8 µM, respectively. For the compound `COc1ccc2c(c1)c(CC(=O)NCCOCC[N+]13CC[S][Re-]14(=[O])[S]CC[N]4C(=O)C3)c(C)n2C(=O)c1ccc(Cl)cc1` (stereo not drawn) [Compound 262], the IC50 worked out at 0.9 µM against human COX-2 and 1.7 µM on COX-2.

On to `COc1ccc2c(c1)c(CC(=O)NCCCCC[N+]13CC[S][Re-]14(=[O])[S]CC[N]4C(=O)C3)c(C)n2C(=O)c1ccc(Cl)cc1` (stereo not drawn) [Compound 263], for which the IC50 against human COX-2 and against COX-2 was 0.3 µM throughout. As for `COc1ccc2c(c1)c(CC(=O)NCCCCCCCC[N+]13CC[S][Re-]14(=[O])[S]CC[N]4C(=O)C3)c(C)n2C(=O)c1ccc(Cl)cc1` (stereo not drawn) [Compound 265], the IC50 at human COX-2 was determined as 2.1 µM; at COX-2, 0.1 µM. `COc1ccc2c(c1)c(CC(=O)NCCCC(C)(C)NC(=O)c1ccc[cH-]1)c(C)n2C(=O)c1ccc(Cl)cc1.[C-]#[O+].[C-]#[O+].[C-]#[O+].[Re+]` [Compound 311] had a 50% inhibitory concentration (IC50) at COX-2 of 0.4 µM. The same measure, in the same setting: with `COc1ccc2c(c1)c(CC(=O)NCCCCCC(C)(C)NC(=O)c1ccc[cH-]1)c(C)n2C(=O)c1ccc(Cl)cc1.[C-]#[O+].[C-]#[O+].[C-]#[O+].[Re+]` [Compound 313] the figure was 0.2 µM. Compound `COc1ccc2c(c1)c(CC(=O)NCCCNCCC[N+]13CC[S][Re-]14(=[O])[S]CC[N]4C(=O)C3)c(C)n2C(=O)c1ccc(Cl)cc1` (stereo not drawn) [Compound 320] had an IC50 against COX-2 of 5 µM. At COX-2, `COc1ccc2c(c1)c(CCNC(=O)CC[N+]13CC[S][Re-]14(=[O])[S]CC[N]4C(=O)C3)c(C)n2C(=O)c1ccc(Cl)cc1` (stereo not drawn) [Compound 356] showed an IC50 of 1.6 µM.
